According to article PMC6814236, “Monitoring and characterizing soluble and membrane-bound ectonucleotidases CD73 and CD39” (PLoS ONE, 2019):
pIC50: −log10 of the molar value. Entries after “also recorded” stand apart in the source; their conditions may differ.

Legend:
[1] = system: T1, cN-II (Human cytosolic 5'-Nucleotidase); test: Enzyme activity of purified cytosolic cN-II (AMP-Glo assay); type: biochemical; conditions: cN-II 0.6 mU/Rx, 10μM AMP, 37°C for 30 min
T1 construct: purchased NovoCIB SAS
Experimental: • 2 Determination of enzyme activity of purified cytosolic cN-II. Activity of purified cN-II (Human cytosolic 5'-Nucleotidase) was determined using 25μl reaction buffer (50mM HEPES, pH 7.0, 100mM KCl, 20mM MgCl2, 5mM DTT, 2.5mM dATP, and 0.1mg/ml BSA) containing enzyme and AMP substrate at 10μM (96-well format). Reaction continued at 37°C for 60 minutes or for a certain time period and terminated by the addition of equal volume (25μl) of AMP-Glo™ Reagent I. Reactions were mixed well and incubated for additional 30 min at 23°C. This was followed by the addition of 50 μl of AMP Detection Solution (10μl of AMP-Glo™ Reagent II per ml of Kinase-Glo® One Solution) and incubated for additional 60 min at 23°C before reading luminescence. • 3 Determination of enzyme activity of purified CD39. Activity of CD39 was determined using reaction buffer that contains 25mM Tris, pH 7.5, 5mM CaCl2, and 0.1mg/ml BSA), with 1μM to 5μM ATP or ADP as substrate, respectively. When ATP is used as a substrate, an equal volume of Kinase-Glo® One Solution was added to CD39 reactions and incubated for 15 min before reading luminescence using a luminometer. […] Reactions were mixed well and incubated for 60min before reading luminescence using luminometer. […]

[2] = target: T2, Recombinant Human 5'-Nucleotidase/CD73 (Homo sapiens, UniProt P21589); design: method as in PMID 18302942, PMID 24144488; conditions: reported by others; ref [25], [26]; cited from earlier work
T2 construct: purchased R&D Systems
T2 sequence (P21589 27-574): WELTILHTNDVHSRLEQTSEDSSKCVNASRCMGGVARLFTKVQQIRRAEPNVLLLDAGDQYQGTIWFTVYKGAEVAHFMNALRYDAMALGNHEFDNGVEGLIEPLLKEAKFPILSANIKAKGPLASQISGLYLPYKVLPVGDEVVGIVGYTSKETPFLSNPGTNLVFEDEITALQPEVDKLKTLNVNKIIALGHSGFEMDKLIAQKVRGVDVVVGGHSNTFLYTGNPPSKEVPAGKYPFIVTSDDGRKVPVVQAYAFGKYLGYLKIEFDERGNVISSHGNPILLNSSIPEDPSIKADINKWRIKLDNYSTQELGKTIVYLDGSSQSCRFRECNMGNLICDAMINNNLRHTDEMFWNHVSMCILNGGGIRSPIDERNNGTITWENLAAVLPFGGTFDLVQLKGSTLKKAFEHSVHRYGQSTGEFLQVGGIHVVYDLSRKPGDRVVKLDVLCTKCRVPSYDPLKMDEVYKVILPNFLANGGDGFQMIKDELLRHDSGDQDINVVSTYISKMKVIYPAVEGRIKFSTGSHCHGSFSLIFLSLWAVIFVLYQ

[3] = system: T3, membrane-associated CD39 of Farage cells; test: Cell-based membrane-associated CD39 activity; design: species or system human; conditions: 50μM inhibitor, Farage cells 200K per ml, 5 μM ATP, 37°C
T3 construct: endogenous in cells; host or cells: Farage
Experimental: For CD39 activity, since it uses both ADP and ATP, we determined its activity using 5 μM final concentration each, as substrate as described above. In a separate plate or microcentrifuge tube, a 25μl aliquots were withdrawn from each well at desired time point and delivered into an assay solid white plate (Corning Costar 3912 or equivalent).
For ADP as substrate, detection of remaining ADP was carried out by preparing AMP Detection Solution (adding 10μl AMP-Glo™ Reagent II to one-ml of Kinase-Glo® One Solution, gently mixing well by inverse tube couple times). To the 25 μl aliquoted from the medium supernatant that was cooled down to room temperature, 25μl of AMP Detection Solution is added to each well, mixed well and incubated for 60min at 23°C, the plates were read using luminometer.
For ATP as substrate, detection of remaining ATP, was carried out using 25μl withdrawn from the medium supernatant that was cooled down to room temperature and 25μl of Kinase-Glo® One Solution were added to each well, mixed well and incubated for 10min at 23°C, then the plate was read using luminometer.
• B Suspension cells. Cells were harvested and washed two times with HBSS by centrifugation at 1,000 rpm at room temperature for 8~10min, discarding the supernatant and cell pellets were diluted to a desired cell number per ml before experiments. […]

luciferase = test: Control test of the compound on luciferase activity; type: biochemical; conditions: control for assay interference
From the text: Although we have not tested this assay using orthogonal assay, very recent publication used this technology (AMP Glo) to develop what they called “an exceptionally potent inhibitor of human […]” (Bowman CE, da Silva RG, Pham A, Young SW. An exceptionally potent inhibitor of human CD73. Biochemistry 2019; 58: 3331-3334) and compared their kinetic data using inorganic phosphate release and the data confirmed the validity of bioluminescence approach. Furthermore, since we launched ADP Glo for kinases and ATPases, it has been cited in over 1500 citations as well as numerus patents, and it is the main assay used for large scale screening for inhibitors in HTS laboratories. Besides, we have not found potent inhibitors of this assay other than few luciferase inhibitors which would be excluded when controls were run simultaneously. Protein concentration used in western blots for CD39 or CD39 in cells should be shown using either a housekeeping control, or the total protein concentration shown if other methods were used. Alternatively, a FACS based assay could be performed to show expression of cell surface […] or CD39.

Structure (SMILES)	inhibition of cN-II [1]	pIC50 [2]	inhibition of membrane-associated CD39 activity [3]	effect on luciferase activity (luciferase)
Nc1ncnc2c1ncn2[C@@H]1O[C@H](COP(=O)(O)CP(=O)(O)O)[C@@H](O)[C@H]1O [AMP-CP, Adenosine 5'-(α, β-methylene) diphosphate]	minimal or no inhibition; also recorded: no inhibition	6.63	–	–
[Na+].[Na+].[Na+].[Na+].[Na+].[Na+].[O]=[W](=[O])([O-])[O-].[O]=[W](=[O])([O-])[O-].[O]=[W](=[O])([O-])[O-].[O]=[W](=[O])=[O].[O]=[W](=[O])=[O].[O]=[W](=[O])=[O].[O]=[W](=[O])=[O].[O]=[W](=[O])=[O].[O]=[W](=[O])=[O].[O]=[W](=[O])=[O].[O]=[W](=[O])=[O].[O]=[W](=[O])=[O] [POM1, Sodium metatungstate]	–	–	inhibited	no inhibitory effect
